Laboratory results taken from PMC8911927, “Synthesis and Biological Evaluation of 1-(2-(6-Methoxynaphthalen-2-yl)-6-methylnicotinoyl)-4-Substituted Semicarbazides/Thiosemicarbazides as Anti-Tumor Nur77 Modulators” (Molecules, 2022).

Experiments:
Nur77 [1] = test: Western blot of Nur77 expression; type: cell-based, human; conditions: HGC-27 cells, concentration gradient
Description: (§1) Equal amounts of the lysates were electrophoresed on 10% SDS-PAGE gel and transferred onto PVDF membranes. After blocked with 5% nonfat milk in TBST (50 mM Tris-HCl (pH 7.4), 150 mM NaCl and 0.1% Tween 20) for 1 h, the membranes were incubated with various primary antibodies overnight and secondary antibodies for 3 h, finally detected using an ECL system. The blots were captured with ChemiDoc XRS+System (Bio-Rad, Hercules, CA, USA).

HGC-27 cells [2] = test: Flow cytometry cell cycle assay; type: cell-based, human; parameters: dose or concentration left out as unconfirmed; conditions: 8 h of treatment
Description: Flow cytometry analysis was applied for cell cycle detection. Firstly, HGC-27 cell was adjusted to 1 × 10^6/mL, inoculated into a six-well plate and placed in an incubator at 37 °C containing 5% CO2 saturated humidity overnight. After the cells were fully attached to the plate, […] 9u and 9h were administrated to the cells for 8 h. After cells were collected and fixed with 70% ethanol, DAPI was applied to stain the cells at the final concentration of 1 μg/mL; subsequently, on-board testing by flow cytometry (Cytoflex S (Beckman Coulter, Brea, CA, USA)) was conducted.

HGC-27 cells [3] = test: Colony formation assay; type: cell-based, human; conditions: treatment for two weeks, 5 μM and 10 μM, dose-dependent
Description: HGC-27 cells were cultured in a six-well plate (500 cells/well) and treated with 9u and 9h in 10% serum medium for two weeks, then fixed with methanol at room temperature and stained with 0.1% crystal violet, and images were scanned with a scanner.

MRC-5 cells = test: MTT cytotoxicity, MRC-5 normal cells; type: cell-based
Description: (§2) All of the cell lines were obtained from the American Type Culture Collection (ATCC, Manassas, VA, USA) and grown in DMEM or RPMI culture medium containing 10% fetal bovine serum (v/v) in 5% CO2 at 37 °C. Confluent cells in good state were cultured in 96-well plates (5–10 × 10^4 cells/mL). After cells were attached to the plate, compounds with various concentrations were applied at 37 °C for 72 h. […] The supernatant was removed, and the cells were dissolved in 100 μL dimethyl sulfoxide and shaken for 5 min.

cleaved PARP = test: Western blot of cleaved PARP; type: cell-based, human; conditions: HGC-27 cells, different times and concentrations, 24 h
Description: as §1

H460 cells = test: MTT cytotoxicity, H460; type: cell-based; conditions: read-out: Cancer Cells IC50, H460
Description: as §2

A549 cells = test: MTT cytotoxicity, A549; type: cell-based; conditions: read-out: Cancer Cells IC50, A549
Description: as §2

LO2 cells = test: MTT cytotoxicity, LO2 normal cells; type: cell-based
Description: as §2

HGC-27 cells [4] = test: MTT cytotoxicity, HGC-27; type: cell-based, human; conditions: 72 h, mean values
Description: (§3) All of the cell lines were obtained from the American Type Culture Collection (ATCC, Manassas, VA, USA) and grown in DMEM or RPMI culture medium containing 10% fetal bovine serum (v/v) in 5% CO2 at 37 °C.
(§4) Confluent cells in good state were cultured in 96-well plates (5–10 × 10^4 cells/mL). After cells were attached to the plate, compounds with various concentrations were applied at 37 °C for 72 h. Then, the cells were incubated with 10 μL of 5 mg/mL MTT reagent at 37 °C for 4 h. The supernatant was removed, and the cells were dissolved in 100 μL dimethyl sulfoxide and shaken for 5 min. Finally, the light absorption (OD) of the dissolved cells was measured at […].

HepG2 cells = test: MTT cytotoxicity, HepG2; type: cell-based; conditions: read-out: Cancer Cells IC50, HepG2
Description: as §2

Nur77 [5] = biological target: T1, Nur77 (Homo sapiens, UniProt P22736); test: Nur77 localization by nuclear-cytosol fractionation and immunofluorescence; type: cell-based; conditions: HGC-27 cells, 3 h, 10 µM for immunofluorescence
T1 construct: endogenous in cells; host or cells: HGC-27
Description: Cells in the logarithmic phase of growth were seeded in 6-cm dishes; after, apposition cells were treated with compound 9h for 3 h. The medium was discarded and washed twice with pre-chilled PBS, then the cells were scraped off with a cytoscraper and collected into 1.5 mL centrifuge tubes and centrifuged at 1500 rpm for 3 min. Next, 80 μL of Buffer B (containing 100× protease inhibitor) were added for 20 min in an ice bath, followed by 20 μL of Buffer B containing 1% TritonX-100. The mixture was vortexed for 10 s, centrifuged at 10,000× g for 15 min at 4 °C, the supernatant collected as cytoplasmic proteins and the precipitate as the nuclear fraction. Then, 100 μL of Buffer C containing 0.4% TritonX-100 were added and centrifuged for 15 min at 4 °C, and 100 uL of Buffer C containing 0.4% TritonX-100 were added and vortexed for 30 min at 4 °C, centrifuged at 15,000× g for 15 min at 4 °C, and the supernatant was the nucleus protein.
The cells were inoculated into the culture dish with preplaced treated coverslips, and the coverslips were removed when the cells were close to growing into a monolayer. Then, they were washed twice with PBS and 4% paraformaldehyde was used to fix the cells for 30 min. The cells were permeabilized with 1‰ TritonX-100 for 10 min. […] One drop of blocker containing DAPI dye was added and the slice sealed and this was examined by fluorescence microscopy.

HeLa cells = test: MTT cytotoxicity, HeLa; type: cell-based, human; conditions: 72 h, mean values
Description: as §3, §4

MDA-MB231 cells = test: MTT cytotoxicity, MDA-MB231; type: cell-based; conditions: read-out: Cancer Cells IC50, MDA-MB231
Description: as §2

MCF-7 cells = test: MTT cytotoxicity, MCF-7; type: cell-based, human; conditions: 72 h, mean values
Description: as §3, §4

A875 cells = test: MTT cytotoxicity, A875; type: cell-based; conditions: read-out: Cancer Cells IC50, A875
Description: as §2

T1 sequence (P22736 whole entry): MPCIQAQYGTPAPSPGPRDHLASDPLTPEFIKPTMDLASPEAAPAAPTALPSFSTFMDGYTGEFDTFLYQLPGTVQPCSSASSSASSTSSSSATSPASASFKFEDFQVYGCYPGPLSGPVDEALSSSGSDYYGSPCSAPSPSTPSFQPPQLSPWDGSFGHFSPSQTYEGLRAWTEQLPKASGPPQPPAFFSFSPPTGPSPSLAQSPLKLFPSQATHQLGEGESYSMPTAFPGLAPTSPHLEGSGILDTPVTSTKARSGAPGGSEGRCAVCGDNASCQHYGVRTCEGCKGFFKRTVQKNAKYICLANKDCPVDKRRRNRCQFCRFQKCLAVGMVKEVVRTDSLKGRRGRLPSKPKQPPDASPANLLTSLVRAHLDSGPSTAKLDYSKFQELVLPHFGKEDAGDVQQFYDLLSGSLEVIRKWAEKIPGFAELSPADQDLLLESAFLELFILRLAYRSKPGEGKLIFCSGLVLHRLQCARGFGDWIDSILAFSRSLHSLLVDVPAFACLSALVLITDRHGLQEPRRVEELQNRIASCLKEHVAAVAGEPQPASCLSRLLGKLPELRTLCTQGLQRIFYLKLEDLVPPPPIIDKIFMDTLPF

**Q.** For “4-(2-Chlorophenyl)-1-(2-(6-methoxynaphthalen-2-yl)-6-methylnicotinoyl)semicarbazide [Compound 9h]”, which Nur77 expression (Nur77 [1]) is on record?
**A.** induced Nur77 expression

**Q.** And the “Effect on cell cycle” value (HGC-27 cells [2])?
**A.** induced cell cycle blockage in G2-M phase

**Q.** What about the “Colony formation of HGC-27 cells” value (HGC-27 cells [3]) of the same substance?
**A.** completely inhibited colony formation

**Q.** What about the IC50 (MRC-5 cells) of the same substance?
**A.** > 50 µM

**Q.** And the PARP cleavage (cleaved PARP)?
**A.** induce the PARP cleavage in a dose-dependent and time-dependent manner

**Q.** What about the IC50 (H460 cells) of the same substance?
**A.** 9.2 ± 0.24 µM

**Q.** And the IC50 (A549 cells)?
**A.** 7.3 ± 0.21 µM

**Q.** What about the IC50 (LO2 cells) of the same substance?
**A.** > 50 µM

**Q.** And the IC50 (HGC-27 cells [4])?
**A.** 1.4 ± 0.11 µM

**Q.** And the IC50 (HepG2 cells)?
**A.** 5.1 ± 0.01 µM

**Q.** And the Nur77 nuclear export (Nur77 [5])?
**A.** significantly induced Nur77 nuclear export

**Q.** What about the IC50 (HeLa cells) of the same substance?
**A.** 4.12 ± 0.08 µM

**Q.** What about the IC50 (MDA-MB231 cells) of the same substance?
**A.** 4.3 ± 0.33 µM

**Q.** What about the IC50 (MCF-7 cells) of the same substance?
**A.** 3.3 ± 0.21 µM

**Q.** And the IC50 (A875 cells)?
**A.** > 50 µM
